Experimental findings from patent US10632106B2, “Methods of cancer treatment with 2-(1′H-Indole-3′-carbonyl)-thiazole-4-carboxylic acid methyl ester” (Ariagen, Inc., priority 2009, dated 2020) are described below.

In this data set the test system is human ovarian cancer cell line OVCAR-3 xenografts. The data set can be described thus: OVCAR-3 xenograft growth inhibition in nude mice. The class given is in vivo. The following applies: 80 mg/kg i.p. once daily. As to the method:
All the procedures related to animal handling, care, and the treatment in the study were performed following guidelines approved by an Institutional Animal Care and Use Committee (IACUC) of Crown Bioscience, Inc. (Santa Clara, Calif., USA, a contract research organization we hired) based on the guidance of the Association for Assessment and Accreditation of Laboratory Animal Care (AAALAC). Animals were checked for any effects of tumor growth and drug treatment on normal behavior such as mobility, food and water consumption, body weight gain/loss (gross body weights were measured twice weekly), eye/hair matting, and any other abnormal effect. Death and observed clinical signs were recorded on the basis of the number of animals within each group. Individual animals with a tumor volume exceeding 3,000 mm^3 or animals of a group with a mean tumor volume exceeding 2,000 mm^3 were euthanized. In addition, animals showing signs of severe distress and/or pain, dropping body weight more than 20% from that at the start of treatment, or losing the capability of accessing adequate food or water were humanely sacrificed.
Each mouse was inoculated subcutaneously at the right flank with the LNCaP cells (1×10^7) in 0.1 ml of PBS for tumor development. When a mean tumor volume reached around 150 mm^3, the tumor-bearing mice were divided into homogeneous blocks based on their tumor volumes followed by a randomization of mice in each block into treatment groups (thus minimizing variations in tumor response to treatments due to the differential in initial mean tumor volumes). Each treatment group was consisted of 8 tumor-bearing mice. Vehicle (DMSO) or ITE in the vehicle at specified doses were administered to the mice by either i.p. (intraperitoneal) or p.o. (oral) injection once or twice daily for 28 continuous days as indicated.
Tumor volume was measured twice weekly in two dimensions using a caliper and the volume was calculated with a formula of: V=0.5 a×b^2, where a and b are the long and short diameter (in mm) of a tumor, respectively. The tumor volume was then used for calculations of both TGI (Tumor Growth Inhibition) and TGD (Tumor Growth Delay). The TGI was determined by: TGI=ΔT/ΔC×100%, where ΔT was a difference between the mean tumor volume at a specified day of observation and that at the day treatment starts (day 1) for a drug treated group whereas ΔC was the same difference measured for the control group. The TGD was calculated as: TGD=T−C, where T was the time (in days) required for tumors in a drug treated group to reach a predetermined mean tumor volume and C the time (in days) in the control group to reach the same volume. A tumor weight was derived by equating 1,000 mm^3 in volume to 1,000 mg in weight. A net body weight was then derived by subtracting a tumor weight from a corresponding gross body weight with the tumor.
Summary statistics, including mean and the standard error of the mean (SEM), are provided for the tumor volume of each group at each time point. Statistical analysis of difference in tumor volume among groups was conducted on a data set either at the best therapeutic time point or at the final dosing day as indicated. The tumor volume data were log-transformed and evaluated using a one-way ANOVA followed by Tukey's test when significance was observed. All data were analyzed using SPSS 16.0 and p<0.05 was considered to be statistically significant.
The culture and inoculation of human prostate cancer cell line LNCaP were as described in Example 1. The manipulation for human liver cancer cell line HepG2 (ATCC) was similar as that for LNCaP except that DMEM (instead of RPMI-1640) medium was used, the L-glutamine was not used, and 2×10^6 cells were used for inoculation into female nude mice. The handling of human ovarian cancer cell line OVCAR-3 (ATCC) was the same as that of LNCaP except that the DMEM medium was used and 5×10^6 cells were used for inoculation into female nude mice. […]

For the compound `COC(=O)c1csc(C(=O)c2c[nH]c3ccccc23)n1` [ITE, 2-(1′H-indole-3′-carbonyl)-thiazole-4-carboxylic acid methyl ester], the “net body weight loss” value is “no obvious net body weight loss”. In addition, the “TGD (Tumor Growth Delay)” value (at a tumor volume of 800 mm^3) worked out at 10 days. In addition, the “TGI (Tumor Growth Inhibition)” value (day 33, TGI=ΔT/ΔC×100%) came out at 47%.
